Data from patent US8796219B2, “Target-activated cell/tissue-penetrating peptide for delivery of impermeable compounds and use thereof” (Nano Intelligent Biomedical Engineering Corporation Co. Ltd, priority 2009, dated 2014).
Where no end group is shown, it is not given here.

Assays:
normal cell line (ATCC) = assay: Cell-penetrating ability in normal cell line (FACS and confocal laser scanning microscopy of FITC fluorescence); type: cell-based; settings: FITC label
Method: (§1) In order to examine the cell-penetrating ability of the target-activated cell/tissue-penetrating peptide prepared in Example 1, the C-terminal region of the prepared peptide was labeled with the fluorescence marker FITC, and the fluorescence-labeled peptide was inoculated into each of a normal cell line (ATCC) and a tumor cell line (CT-26, KCLB (Korea cell line bank) 80009).
(§2) 1 hour after the inoculation, the fluorescence intensities of the cell lines were measured using FACS, and the results of the measurement are shown in FIG. 2. […] In FIG. 2, “(a)” indicates the fluorescence intensity of the normal cell line, and “(b)” indicates the fluorescence intensity of the tumor cell line.
(§3) Also, whether the peptide penetrated into the cells was observed by a confocal laser scanning microscope. […] In FIG. 3, “(a)” indicates the cell penetration of the peptide in the tumor cell line group, and “(b)” indicates the cell penetration of the peptide in the normal cell line group.
(§4) The target-activated cell/tissue-penetrating peptide-anticancer protein conjugate prepared in Example 2 above was inoculated into each of a normal cell line (ATCC) and a tumor cell line (CT-26, KCLB (Korea cell line bank) 80009). 1 hour after the inoculation, the penetration of the peptide-gelonin conjugate into the cells was observed by a confocal laser scanning microscope (FIG. 4).

tumor cell line (CT-26) = assay: Cell-penetrating ability in tumor cell line (FACS and confocal laser scanning microscopy of FITC fluorescence); type: cell-based, mouse
Method: as §1, §2, §3, §4

| Substance | fluorescence intensity of the normal cells (FACS) (normal cell line (ATCC)) | fluorescence intensity of the tumor cells (FACS) (tumor cell line (CT-26); CT-26, 1 hour after inoculation, FITC label) | penetration into the cells observed by confocal laser scanning microscope, tumor cell line (tumor cell line (CT-26); CT-26, FITC label, nuclei stained with Hoechst 33342) | penetration into the cells observed by confocal laser scanning microscope, normal cell line (normal cell line (ATCC); nuclei stained with Hoechst 33342) |
| --- | --- | --- | --- | --- |
| NH2-EEEEEEEPLGLAG-VSRRRRRRGGRRRR-C-COONH2 (H-EEEEEEEPLGLAGVSRRRRRRGGRRRRC-NH2) [masking domain (EEEEEEE), MMP-cleavable spacer (PLGLAG) and LMWP as protein transduction domain] | the same as that before application of the penetrating peptide | – | – | – |
| fluorescence-labeled peptide: peptide of Example 1 with the C-terminal region labeled with the fluorescence marker FITC (H-EEEEEEEPLGLAGVSRRRRRRGGRRRRC; also: FITC label on C-terminal region) | – | increase | observed | not observed |
